According to paper PMC9995496, “A screen for MeCP2-TBL1 interaction inhibitors using a luminescence-based assay” (Scientific Reports, 2023):

molecular target: T1, MeCP2-TBL1 interaction (MeCP2-SmBiT / TBL1-LgBiT) (Mus musculus, UniProt Q9QXE7); experiment: MeCP2-TBL1 NanoLuc luciferase complementation assay (cell-free, extracts of transfected HEK293 cells); assay type: binding, human; details: primary screen of Asinex library, single well per compound
T1 construct: expressed in transfected cells; crude lysate used as a cell-free assay
T1 sequence (Q9QXE7 166-527): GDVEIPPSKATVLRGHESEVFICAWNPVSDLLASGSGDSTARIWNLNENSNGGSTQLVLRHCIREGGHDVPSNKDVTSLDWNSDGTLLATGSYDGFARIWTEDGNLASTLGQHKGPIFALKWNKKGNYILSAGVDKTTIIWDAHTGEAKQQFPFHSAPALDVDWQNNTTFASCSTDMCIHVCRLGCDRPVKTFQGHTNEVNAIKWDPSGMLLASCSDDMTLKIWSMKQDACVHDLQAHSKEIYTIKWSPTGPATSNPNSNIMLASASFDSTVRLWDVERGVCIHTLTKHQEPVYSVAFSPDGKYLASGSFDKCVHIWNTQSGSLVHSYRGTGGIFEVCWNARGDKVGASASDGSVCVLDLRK
Excerpt: To facilitate the discovery of inhibitors of the interaction between MeCP2 and TBL1/TBLR1, we set out to devise a simple and scalable biochemical assay for measuring the interaction between these two proteins. We initially explored the possibility of screening compound libraries using a previously established fluorescence polarization assay that depends on purified recombinant TBL1/TBLR1[26]. […] The resulting luminescence signal depends on the affinity between the two interacting proteins of interest (Fig. 1A). This method was originally developed to allow for the interrogation of protein–protein interactions in vivo. However, in order to facilitate large scale screening of chemical libraries, we adapted the assay for use as a cell-free system.
We fused the large N-terminal fragment of NanoLuc (LgBiT) to the C-terminus of the WD repeat domains of both TBL1 and TBLR1, and the small C-terminal fragment of NanoLuc (SmBiT) to the C-terminus of the C-terminal half of MeCP2 (Fig. 1B and C). This region of MeCP2 contains the NID (NCoR interaction domain)—the motif in MeCP2 that binds to TBL1/TBLR1.
The AgeI-NotI restriction fragment (encoding EGFP) was then replaced with a codon optimized SmBiT sequence to yield the MeCP2-SmBiT expression plasmid. The TBL1-LgBiT expression vector was derived from a TBL1-mCherry plasmid[25] by replacing the AgeI-NotI restriction fragment (encoding mCherry) with a codon optimized LgBiT sequence. SmBiT-PRKACA and LgBiT-PRKAR2A plasmids are commercially available (Promega, N203 and N204).
Cells were harvested after 24 h and cell pellets were stored at − 80 °C.
In the screens described here, the lysate obtained from a single 15 cm plate was used for 2.5 384-well assay plates. NanoLuc substrate (furimazine) (Promega, N1110) was diluted 1000-fold in passive lysis buffer (Promega, E1941) and added 1:1 to the lysate. Screening libraries were purchased from Asinex[40] and ApexBio (FDA-approved Drug Library, L1021). Compounds were dispensed using an Echo acoustic dispenser and tested at a final concentration of 20 µM in a total assay volume of 20 μl in 384-well plate format. DMSO was added to each well at a final concentration of 0.2% (v/v) and wells containing only DMSO were used as negative control. After 30 min incubation at room temperature, luminescence was measured on a Tecan M1000 multi-mode plate reader. Raw luminescence reads from each well on each plate were normalized to the median luminescence signal for that plate. In the ApexBio screen, the scaled and normalized PKA signal for each compound was subtracted from the MeCP2-TBL1 signal for the same compound. After plate normalization the robust SSMD (SSMD*) was calculated as described elsewhere. A threshold of SSMD* ≥ 3 was applied for discerning primary hits.
Assays were performed as described above except instead of a single concentration, a threefold serial dilution ranging from 60 to 0.03 μM was tested in triplicate for each of the compounds. Half-maximal inhibitory concentrations were calculated using global nonlinear regression by fitting the response data sets of all compounds simultaneously with a four-parameter logistic curve of log inhibitor concentration versus normalized luminescence using GraphPad Prism. During fitting, the maximum and minimum curve values were shared between the data sets.

Row | Inhibition percent | Structure (SMILES)
1 | -2.79 | NC(=O)c1cccc(-c2nccnc2C2CCCN(C(=O)COc3ccc(F)cc3)C2)c1 (stereo not shown) [BDD_27905103]
2 | -0.10 | Cc1nn(C)cc1C(=O)N1CCCCC1c1ncccc1C(=O)NCc1ccccc1 (stereo not shown) [BDE_24469941]
3 | -1.63 | COCCNC(=O)CN1CCCC1c1nc(C)c2c(n1)N(Cc1ccccc1)C(=O)CC2 (stereo not shown) [BDE_24735834]
4 | -1.93 | CNc1nc(C2CCCNC2)nc2c1CCN(C(=O)C1(Oc3ccccc3)CCCCC1)C2 (stereo not shown) [BDE_26713143]

same assay, conditions: primary screen of the Asinex library, sheet "Sargen output Asinex library", one well per compound

Row | Inhibition percent | Structure (SMILES)
5 | -1.40% | NC(=O)c1cccc(-c2nccnc2C2CCCN(CCCc3ccccc3)C2)c1 (stereo not shown) [BDD_27892119]
6 | -14.24% | CC(=O)N(C)Cc1cc(N(C)C)nc(C2CCCN2C(=O)Cc2ccc3c(c2)CCCC3)n1 (stereo not shown) [BDE_23426204]
7 | -0.34% | Cc1ccc(CC(=O)N2CCCC(c3ncccc3C(=O)NCc3ccccc3)C2)cc1C (stereo not shown) [BDE_24458967]
8 | 8.09% | O=C(NCCc1ccc(Cl)cc1)C1(Cc2cc(-c3ccccc3)no2)CCCO1 (stereo not shown) [BDE_24757019]
9 | -2.53% | CC1CCN(C(=O)CN2CCC(C3CCCCN(CCc4ccccc4)C3=O)CC2)CC1 (stereo not shown) [BDE_25214814]
10 | 2.24% | CC(=O)N1CCc2nc(C3CCCN(C)C3)nc(NCCCc3ccccc3Cl)c2C1 (stereo not shown) [BDE_25356631]
11 | 1.06% | CC(=O)N1CCC(c2nc3c(c(NCCOc4cccc(C)c4C)n2)CN(C)CC3)CC1 [BDE_25367865]
12 | -2.49% | CC(=O)N1CCc2nc(C3CCN(C)CC3)nc(NCCCN(C)c3ccccc3)c2C1 [BDE_25368265]
13 | -0.14% | O=C(Cc1c[nH]c2ccccc12)N1CCC2(CC=CCN(Cc3ccc(F)cc3)C2=O)CC1 [BDE_25848651]
14 | -2.37% | COCCN1CC=CCC2(CCN(CC(=O)N(Cc3ccccc3)C(C)C)CC2)C1=O [BDE_25851451]
15 | -1.75% | Cc1nc(C2CCCN2C(=O)c2ccncc2)nc2c1CCC(=O)N2CCc1ccccc1 (stereo not shown) [BDE_26909882]
16 | -1.96% | O=C(c1ccccn1)N1CCCC1c1cc(CCOc2cccc(C(F)(F)F)c2)[nH]n1 (stereo not shown) [BDE_27113075]
17 | -2.00% | CN(CCC(=O)N1CCCC1c1cncc(Cc2cccc(Cl)c2)n1)Cc1cccnc1 (stereo not shown) [BDE_27213557]
18 | -3.79% | O=C(CCCNc1ncccn1)N1CCCC1c1cncc(Cc2cccc(Cl)c2)n1 (stereo not shown) [BDE_27217604]
19 | 6.28% | Cc1cc(C2CCCN(Cc3ccc(-c4ccccc4C(=O)O)o3)C2)ccn1 (stereo not shown) [BDE_30686588]
20 | -0.80% | Cc1nccc(C2CCCN2Cc2ccc(-c3ccccc3C(=O)O)cc2)n1 (stereo not shown) [BDE_30687639]
21 | -2.37% | CNc1cccc(C2CCCN2Cc2ccc(-c3ccccc3C(=O)O)cc2)n1 (stereo not shown) [BDE_30687673]
22 | -2.52% | O=C(O)c1ccccc1CN1CCCC(c2ncc(Cc3ccc(Cl)cc3)o2)C1 (stereo not shown) [BDE_33511194]
23 | 0.39% | COc1cccc(Cc2cnc(C3CCCCN3C(=O)COc3ncnc4ccccc34)o2)c1 (stereo not shown) [BDE_33513545]
24 | 7.15% | COc1cccc(-c2cc(C(=O)N3CCCCC3c3ncc(Cc4ccccc4)o3)on2)c1 (stereo not shown) [BDE_33514162]

same assay, conditions: primary screen of the Asinex library, sheet "Sargen output Asinex library", one well per compound, Batch Ref. 1

Row | Inhibition percent | Structure (SMILES)
25 | 11.34% | COc1ccc(CCC(=O)N2CCCC(c3cncc(-c4cccc(OC)c4)n3)C2)cc1 (stereo not shown) [BDD_27924033]
26 | 3.82% | Cc1cc(Nc2cccc(C3CCCN(C(=O)C4CCCCN4C(=O)OC(C)(C)C)C3)n2)[nH]n1 (stereo not shown) [BDD_30366487]
27 | -0.41% | CNCc1cc(NC)nc(C2CCCN2C(=O)c2cccc(Oc3ccccc3)c2)n1 (stereo not shown) [BDE_23425118]
28 | -3.75% | CN(Cc1cc(N(C)C)nc(C2CCCCN2)n1)C(=O)c1ccccc1-c1ccccc1 (stereo not shown) [BDE_23459438]
29 | -2.87% | O=C(NCc1ccccc1)c1cccnc1C1CCCCN1CC(=O)N1CCNC1=O (stereo not shown) [BDE_24470675]
30 | -1.66% | Cc1ccccc1OCCN1C(=O)CCc2c(C)nc(CN(C)C(=O)C3CCCC3)nc21 [BDE_24687458]
31 | -0.22% | Cc1nnc(N2CCC(C3CC=CCN(Cc4ccc(F)cc4)C3=O)CC2)c2ccccc12 (stereo not shown) [BDE_24723072]
32 | -0.38% | Cc1nc(C2CCN(C(=O)C3CCCC3)CC2)nc2c1CCC(=O)N2CCc1ccccc1 [BDE_24748773]
33 | -0.77% | Cc1c(C(=O)N2CCC(C3(C)CCCCN(CCc4ccccc4)C3=O)CC2)cnn1C (stereo not shown) [BDE_25215150]
34 | -4.16% | COCCc1ncc(CN2CCCC2c2cc(Cc3cccc(OC)c3)cc(C)n2)cn1 (stereo not shown) [BDE_25403133]
35 | 3.10% | COc1ccc(Cc2ccc(C3CCCN3C(=O)CCn3ncc4ccccc43)nc2)cc1 (stereo not shown) [BDE_25650039]
36 | -0.81% | Nc1nc(-c2ccccc2)nc2nc(C3CCCN(C(=O)COc4ccccc4)C3)ccc12 (stereo not shown) [BDE_26160293]
37 | 1.13% | Cc1cc(CCCC(=O)N2CCCC2c2cccc(Nc3nncs3)n2)ccc1F (stereo not shown) [BDE_26594959]
38 | 34.22% | CN(C)c1ncc(-c2cccc(F)c2)c(C2CCCCN2C(=O)COc2ccccc2)n1 (stereo not shown) [BDE_26725534]
39 | 20.50% | COc1cccc(CC(=O)N2CCC(c3nc(N(C)C)ncc3-c3ccccc3F)CC2)c1 [BDE_26728718]
40 | -0.64% | Cc1nc(C2CCN(C(=O)c3cccnc3)CC2)nc2c1CCCN2CCc1ccccc1 [BDE_27576245]

Row | Inhibition percent | Structure (SMILES)
41 | -1.68% | Cc1nc2c(c(Nc3ccccn3)n1)CCN(C(=O)C1CCCCN1C(=O)OC(C)(C)C)C2 (stereo not shown) [BDE_27755327]
42 | -2.12% | O=C(O)c1ccccc1-c1ccc(CN2CCCC2c2ccncn2)cc1 (stereo not shown) [BDE_30687637]
43 | 3.33% | O=C(Cn1ncc2ccccc2c1=O)N1CCCCC1c1ncc(Cc2ccccc2F)o1 (stereo not shown) [BDE_33507923]
44 | -1.97% | COc1cccc(Cc2cnc(C3CCCN(C(=O)Cn4ncc5ccccc5c4=O)C3)o2)c1 (stereo not shown) [BDE_33507930]
45 | 0.79% | O=C(Cn1ncc2ccccc2c1=O)N1CCCC(c2ncc(Cc3ccc(Cl)cc3)o2)C1 (stereo not shown) [BDE_33507934]
46 | 6.24% | COc1ccccc1Cc1cnc(C2CCCN(C(=O)c3cc(-c4ccc(F)cc4)no3)C2)o1 (stereo not shown) [BDE_33509516]
47 | 4.61% | COc1ccccc1Cc1cnc(C2CCCN(S(=O)(=O)c3cn(C)nc3C)C2)o1 (stereo not shown) [BDE_33511387]
48 | 3.75% | COc1ccccc1Cc1cnc(C2CCCN(C(=O)c3ccc(Cc4ccccc4)nc3)C2)o1 (stereo not shown) [BDE_33511644]
49 | 1.49% | COc1ccccc1Cc1cnc(C2CCCCN2C(=O)Cn2ncc3ccccc3c2=O)o1 (stereo not shown) [BDE_33513118]
50 | 6.68% | O=C(c1cc(-c2ccccc2F)n[nH]1)N1CCCCC1c1ncc(Cc2ccccc2)o1 (stereo not shown) [BDE_33513466]
51 | -1.92% | O=C(COc1ncnc2ccccc12)N1CCCCC1c1ncc(Cc2ccc(F)cc2)o1 (stereo not shown) [BDE_33513539]
52 | 4.13% | O=C(COc1ncnc2ccccc12)N1CCCCC1c1ncc(Cc2cccc(Cl)c2)o1 (stereo not shown) [BDE_33513542]
53 | 18.16% | COc1cccc(-c2cc(C(=O)N3CCCCC3c3ncc(Cc4ccccc4OC)o3)[nH]n2)c1 (stereo not shown) [BDE_33513613]
54 | -11.18% | O=C(NCC(=O)N1CCCCC1c1ncc(Cc2ccc(Cl)cc2)o1)c1cncc(O)c1 (stereo not shown) [BDE_33513655]
55 | 18.69% | COc1ccc(OC)c(-c2cc(C(=O)N3CCCCC3c3ncc(Cc4ccccc4)o3)[nH]n2)c1 (stereo not shown) [BDE_33513704]
